For 30 compounds, IC50 results are on record in patent US9072698B2, “Method for screening anti-cancer compounds inhibiting function of TM4SF5 and anti-cancer composition containing chalcone compounds” (Seoul National University Industry Foundation, priority 2006, dated 2015).

The structures appear in SMILES notation. Values after ≈ are worked out from the molar mass of the structure shown.

What all share (assay type): cell-based
Experiment [1] concerns HCT15 (colon adenocarcinoma). Description: In vitro cytotoxicity, sulforhodamine B (SRB) method, HCT15. The note with it: Homo sapiens; HCT-15, SRB method; read-out: cytotoxicity (ED50) HCT-15. The method, then:
(§1) The chalcone derivatives of the present invention were evaluated for in vitro cytotoxicity against human carcinoma cell lines using a sulforhodamine B (SRB) method, which was developed in 1989 by the National Cancer Institute (NCI), USA.
(§2) HCT15 (colon adenocarcinoma; ATCC CCL-225), PC-3 (prostate adenocarcinoma; ATCC CRL-1435), and A-549 (lung carcinoma; ATCC CCL-185) cell lines were used. All of these carcinoma cells were sub-cultured at the Korean Research Institute of Bioscience and Biotechnology (KRIBB), Korea.
(§3) The human carcinoma cell lines were cultured in 10% FCS-containing RPMI 1640 medium (Gibco Cat. No. 31800) in an incubator at 37° C. under 5% CO2, and sub-cultured twice per week.
(§4) Cells were detached from the attached surface using 0.25% Trypsin (Sigma) and 3 mM CDTA (1,2-cyclohexane diamine tetraacetic acid, Sigma) in phosphate buffered saline (PBS, Sigma).
(§5) Compounds to be tested (the chalcone derivatives set forth in Table 1) were dissolved in a small amount of dimethylsulfoxide (DMSO, Sigma), and diluted in culture medium to a desired concentration. The final concentration of DMSO was less than 0.5%. The diluted compounds (final concentration: 30, 10, 3, 1 and 0.3 μg/ml) were sterilized through a 0.22-μm microfilter (Millipore). The cytotoxicity of the compounds to human carcinoma cell lines was assessed using a typical SRB method.
A general note: The SRB assay estimates cell density from bound dye.

The test system of experiment [2] is A-549 (lung carcinoma). The experiment in a line: In vitro cytotoxicity, sulforhodamine B (SRB) method, A-549. To be noted: Homo sapiens, A549; A-549, SRB method; read-out: cytotoxicity (ED50) A-549. The method, then:
as §1, §2, §3, §4, §5

The test system of experiment [3] is PC-3 (prostate adenocarcinoma). The experiment in a line: In vitro cytotoxicity, sulforhodamine B (SRB) method, PC-3. The note with it: Homo sapiens; PC-3, SRB method; read-out: cytotoxicity (ED50) PC-3. The method, then: as §1, §2, §3, §4, §5

`O=C(/C=C/c1ccc(O)cc1)c1ccc(NS(=O)(=O)c2ccccc2)cc1` [Compound 33, 4′-(benzensulfonylamino)-4-hydroxychalcone]: the IC50 in experiment [1] turned out to be 47 µg/mL (≈ 124 µM); in experiment [2], 45 µg/mL (≈ 119 µM); in experiment [3], 42 µg/mL (≈ 111 µM).
Turning to `CS(=O)(=O)Nc1ccc(C(=O)/C=C/c2ccc(O)cc2)cc1` [Compound 34, 4′-(methanesulfonylamino)-4-hydroxychalcone], the IC50 is 54 µg/mL (≈ 170 µM) in experiment [1], 74 µg/mL (≈ 233 µM) in experiment [2] and 64 µg/mL (≈ 202 µM) in experiment [3].
As to `Cc1ccc(S(=O)(=O)Oc2ccc(C(=O)/C=C/c3ccc(O)cc3)cc2)cc1` [Compound 35, 4′-(p-toluenesulfonate)-4-hydroxychalcone], the IC50 amounted to 51 µg/mL (≈ 129 µM) in experiment [1], 47 µg/mL (≈ 119 µM) in experiment [2] and 57 µg/mL (≈ 145 µM) in experiment [3].
As for `O=C(/C=C/c1ccc(O)cc1)c1ccc(OS(=O)(=O)c2ccc(F)cc2)cc1` [Compound 36, 4′-(p-fluorobenzenesulfonate)-4-hydroxychalcone], the results for the IC50 in experiment [1], in experiment [2] and in experiment [3] were 48 µg/mL (≈ 120 µM), 41 µg/mL (≈ 103 µM) and 39 µg/mL (≈ 97.9 µM), respectively.
Taken in the same sequence, the figures for `O=C(/C=C/c1ccc(O)cc1)c1ccc(OS(=O)(=O)c2cccc(F)c2)cc1` [Compound 37, 4′-(m-fluorobenzenesulfonate)-4-hydroxychalcone] were 34 µg/mL (≈ 85.3 µM), 37 µg/mL (≈ 92.9 µM) and 27 µg/mL (≈ 67.8 µM).
Taken in the same sequence, the figures for `O=C(/C=C/c1ccc(O)cc1)c1ccc(OS(=O)(=O)c2ccc([N+](=O)[O-])cc2)cc1` [Compound 38, 4′-(p-nitrobenzenesulfonate)-4-hydroxychalcone] were 52 µg/mL (≈ 122 µM), 57 µg/mL (≈ 134 µM) and 47 µg/mL (≈ 110 µM).
Take `Nc1ccc(S(=O)(=O)Oc2ccc(C(=O)/C=C/c3ccc(O)cc3)cc2)cc1` [Compound 39, 4′-(p-aminobenzenesulfonate)-4-hydroxychalcone]: the figures for the IC50 in experiment [1], in experiment [2] and in experiment [3] were 39 µg/mL (≈ 98.6 µM), 37 µg/mL (≈ 93.6 µM) and 38 µg/mL (≈ 96.1 µM), respectively.
Taken in the same sequence, the figures for `O=C(/C=C/c1ccc(O)cc1)c1ccc(OS(=O)(=O)c2ccccc2)cc1` [Compound 40, 4′-(benzenesulfonate)-4-hydroxychalcone] were 31 µg/mL, 30 µg/mL and 39 µg/mL.
For `CS(=O)(=O)Oc1ccc(C(=O)/C=C/c2ccc(O)cc2)cc1` [Compound 41, 4′-(methanesulfonate)-4-hydroxychalcone], in that order: 42 µg/mL, 49 µg/mL and 48 µg/mL.
For `Cc1ccc(S(=O)(=O)Nc2ccc(C(=O)/C=C/c3ccc(O)c(O)c3)cc2)cc1` [Compound 42, 4′-(p-toluenesulfonylamino)-3,4-dihydroxychalcone], in that order: 7 µg/mL (≈ 17.1 µM), 10 µg/mL (≈ 24.4 µM) and 18 µg/mL (≈ 44 µM).
`Cc1ccc(S(=O)(=O)Nc2ccc(C(=O)/C=C/c3cccc(O)c3O)cc2)cc1` [Compound 43, 4′-(p-toluenesulfonylamino)-2,3-dihydroxychalcone]: the IC50 in experiment [1] turned out to be 12 µg/mL (≈ 29.3 µM); in experiment [2], 18 µg/mL (≈ 44 µM); in experiment [3], 14 µg/mL (≈ 34.2 µM).
For `Cc1ccc(S(=O)(=O)Nc2ccc(C(=O)/C=C/c3cc(O)ccc3O)cc2)cc1` [Compound 45, 4′-(p-toluenesulfonylamino)-2,5-dihydroxychalcone], the figures for the IC50 in experiment [1], in experiment [2] and in experiment [3] were 11 µg/mL (≈ 26.9 µM), 12 µg/mL (≈ 29.3 µM) and 14 µg/mL (≈ 34.2 µM), respectively.
Taken in the same sequence, the figures for `Cc1ccc(S(=O)(=O)Nc2cccc(C(=O)/C=C/c3ccc(O)c(O)c3)c2)cc1` [Compound 46, 3′-(p-toluenesulfonylamino)-3,4-dihydroxychalcone] were 9 µg/mL (≈ 22 µM), 13 µg/mL (≈ 31.7 µM) and 8 µg/mL (≈ 19.5 µM).
`Cc1ccc(S(=O)(=O)Nc2ccccc2C(=O)/C=C/c2ccc(O)c(O)c2)cc1` [Compound 47, 2′-(p-toluenesulfonylamino)-3,4-dihydroxychalcone]: the figures for the IC50 in experiment [1], in experiment [2] and in experiment [3] were 8 µg/mL (≈ 19.5 µM), 11 µg/mL (≈ 26.9 µM) and 17 µg/mL (≈ 41.5 µM), respectively.
For `O=C(/C=C/c1ccc(O)c(O)c1)c1ccc(NS(=O)(=O)c2ccc(O)cc2)cc1` [Compound 48, 4′-(p-hydroxybenzenesulfonylamino)-3,4-dihydroxychalcone], in that order: 7 µg/mL (≈ 17 µM), 8 µg/mL (≈ 19.4 µM) and 11 µg/mL (≈ 26.7 µM).
For `O=C(/C=C/c1cccc(O)c1O)c1ccc(NS(=O)(=O)c2ccc(O)cc2)cc1` [Compound 49, 4′-(p-hydroxybenzenesulfonylamino)-2,3-dihydroxychalcone], in that order: 8 µg/mL (≈ 19.4 µM), 6 µg/mL (≈ 14.6 µM) and 14 µg/mL (≈ 34 µM).
Take `O=C(/C=C/c1ccc(O)cc1O)c1ccc(NS(=O)(=O)c2ccc(O)cc2)cc1` [Compound 50, 4′-(p-hydroxybenzenesulfonylamino)-2,4-dihydroxychalcone]: the IC50 amounted to 9 µg/mL (≈ 21.9 µM) in experiment [1], 10 µg/mL (≈ 24.3 µM) in experiment [2] and 9 µg/mL (≈ 21.9 µM) in experiment [3].
`O=C(/C=C/c1cc(O)ccc1O)c1ccc(NS(=O)(=O)c2ccc(O)cc2)cc1` [Compound 51, 4′-(p-hydroxybenzenesulfonylamino)-2,5-dihydroxychalcone]: the IC50 in experiment [1] was found to be 6 µg/mL (≈ 14.6 µM); in experiment [2], 13 µg/mL (≈ 31.6 µM); in experiment [3] it was 11 µg/mL (≈ 26.7 µM).
Taken in the same sequence, the figures for `O=C(/C=C/c1ccc(O)c(O)c1)c1cccc(NS(=O)(=O)c2ccc(O)cc2)c1` [Compound 52, 3′-(p-hydroxybenzenesulfonylamino)-3,4-dihydroxychalcone] were 7 µg/mL (≈ 17 µM), 6 µg/mL (≈ 14.6 µM) and 5 µg/mL (≈ 12.2 µM).
Consider `O=C(/C=C/c1cccc(O)c1O)c1cccc(NS(=O)(=O)c2ccc(O)cc2)c1` [Compound 53, 3′-(p-hydroxybenzenesulfonylamino)-2,3-dihydroxychalcone], for which the IC50 in experiment [1] worked out at 8 µg/mL (≈ 19.4 µM); in experiment [2], 7 µg/mL (≈ 17 µM); in experiment [3], 8 µg/mL (≈ 19.4 µM).
In the case of `O=C(/C=C/c1ccc(O)cc1O)c1cccc(NS(=O)(=O)c2ccc(O)cc2)c1` [Compound 54, 3′-(p-hydroxybenzenesulfonylamino)-2,4-dihydroxychalcone], the results for the IC50 in experiment [1], in experiment [2] and in experiment [3] were 7 µg/mL (≈ 17 µM), 9 µg/mL (≈ 21.9 µM) and 9 µg/mL (≈ 21.9 µM), respectively.
`O=C(/C=C/c1cc(O)ccc1O)c1cccc(NS(=O)(=O)c2ccc(O)cc2)c1` [Compound 55, 3′-(p-hydroxybenzenesulfonylamino)-2,5-dihydroxychalcone]: the IC50 in experiment [1] was 6 µg/mL (≈ 14.6 µM); in experiment [2] it was 7 µg/mL (≈ 17 µM); in experiment [3], 12 µg/mL (≈ 29.2 µM).
As for `O=C(/C=C/c1ccc(O)c(O)c1)c1ccccc1NS(=O)(=O)c1ccc(O)cc1` [Compound 56, 2′-(p-hydroxybenzenesulfonylamino)-3,4-dihydroxychalcone], the IC50 in experiment [1] was found to be 5 µg/mL (≈ 12.2 µM); in experiment [2] it was 3 µg/mL (≈ 7.29 µM); in experiment [3], 6 µg/mL (≈ 14.6 µM).
Taken in the same sequence, the figures for `O=C(/C=C/c1cccc(O)c1O)c1ccccc1NS(=O)(=O)c1ccc(O)cc1` [Compound 57, 2′-(p-hydroxybenzenesulfonylamino)-2,3-dihydroxychalcone] were 9 µg/mL (≈ 21.9 µM), 7 µg/mL (≈ 17 µM) and 10 µg/mL (≈ 24.3 µM).
On to `O=C(/C=C/c1ccc(O)cc1O)c1ccccc1NS(=O)(=O)c1ccc(O)cc1` [Compound 58, 2′-(p-hydroxybenzenesulfonylamino)-2,4-dihydroxychalcone], for which the results for the IC50 in experiment [1], in experiment [2] and in experiment [3] were 11 µg/mL (≈ 26.7 µM), 12 µg/mL (≈ 29.2 µM) and 10 µg/mL (≈ 24.3 µM), respectively.
`O=C(/C=C/c1cc(O)ccc1O)c1ccccc1NS(=O)(=O)c1ccc(O)cc1` [Compound 59, 2′-(p-hydroxybenzenesulfonylamino)-2,5-dihydroxychalcone]: the values for the IC50 in experiment [1], in experiment [2] and in experiment [3] were 9 µg/mL (≈ 21.9 µM), 13 µg/mL (≈ 31.6 µM) and 20 µg/mL (≈ 48.6 µM), respectively.
For `O=C(/C=C/c1ccc(O)c(O)c1)c1ccc(NS(=O)(=O)c2cccc(O)c2)cc1` [Compound 60, 4′-(m-hydroxybenzenesulfonylamino)-3,4-dihydroxychalcone], in that order: 4 µg/mL (≈ 9.72 µM), 7 µg/mL (≈ 17 µM) and 8 µg/mL (≈ 19.4 µM).
For `O=C(/C=C/c1cccc(O)c1O)c1ccc(NS(=O)(=O)c2cccc(O)c2)cc1` [Compound 61, 4′-(m-hydroxybenzenesulfonylamino)-2,3-dihydroxychalcone], in that order: 12 µg/mL (≈ 29.2 µM), 10 µg/mL (≈ 24.3 µM) and 10 µg/mL (≈ 24.3 µM).
Consider `O=C(/C=C/c1ccc(O)cc1O)c1ccc(NS(=O)(=O)c2cccc(O)c2)cc1` [Compound 62, 4′-(m-hydroxybenzenesulfonylamino)-2,4-dihydroxychalcone], for which the IC50 turned out to be 7 µg/mL (≈ 17 µM) in experiment [1], 12 µg/mL (≈ 29.2 µM) in experiment [2] and 8 µg/mL (≈ 19.4 µM) in experiment [3].
Turning to `O=C(/C=C/c1cc(O)ccc1O)c1ccc(NS(=O)(=O)c2cccc(O)c2)cc1` [Compound 63, 4′-(m-hydroxybenzenesulfonylamino)-2,5-dihydroxychalcone], the IC50 in experiment [1] came out at 8 µg/mL (≈ 19.4 µM); in experiment [2] it was 10 µg/mL (≈ 24.3 µM); in experiment [3], 14 µg/mL (≈ 34 µM).
